In the assay the target is T1, Cholesteryl ester transfer protein (Homo sapiens, UniProt P11597).
T1 sequence (P11597 whole entry): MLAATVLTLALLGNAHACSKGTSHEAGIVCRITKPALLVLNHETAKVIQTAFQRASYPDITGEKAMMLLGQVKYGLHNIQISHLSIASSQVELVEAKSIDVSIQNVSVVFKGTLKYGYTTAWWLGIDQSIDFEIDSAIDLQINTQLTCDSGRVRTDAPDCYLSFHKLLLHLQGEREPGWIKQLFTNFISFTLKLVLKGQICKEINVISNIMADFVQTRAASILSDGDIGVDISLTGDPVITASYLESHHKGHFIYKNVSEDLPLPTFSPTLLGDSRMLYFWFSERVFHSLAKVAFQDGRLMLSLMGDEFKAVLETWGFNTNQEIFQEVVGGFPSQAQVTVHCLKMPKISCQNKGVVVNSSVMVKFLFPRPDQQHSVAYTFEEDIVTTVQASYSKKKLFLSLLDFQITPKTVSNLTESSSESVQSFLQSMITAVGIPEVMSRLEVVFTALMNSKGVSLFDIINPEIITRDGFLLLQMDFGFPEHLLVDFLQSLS
Description: CETP In Vitro Assay: CETP inhibitory activity of compounds of the present invention can be determined in a fluorometric assay purchased from Roar Biomedical, Inc. (New York, N.Y., USA). […] Recombinant human CETP was partially purified from medium conditioned by CETP expressing CHO cells. In a 384 well format 2.5 ul of compound solution in DMSO was combined with 2 ul of donor solution, 2 ul of acceptor solution and 0.8 ul of recombinant human CETP solution in a total volume of 100 ul with assay buffer and incubated for 3 hours at 37° C. The fluorescence intensity was measured at excitation wavelength of 485 nm and emission wavelength of 535 nm.

Each structure is given as a SMILES string. pIC50: −log10 of the molar value.

Broadly, the pIC50 is −log10 of the IC50, conventionally taken in molar units. For the compound `CC(C)c1nc2c(c3c1[C@@H](c1ccc(C(F)(F)F)nc1)OC31CCOCC1)[C@@H](O)CC1(CC1)[C@H]2O`, the pIC50 is 6.68.

The values are drawn from ChEMBL document CHEMBL3886281, “Furo[3,4-c]quinoline derivatives, medicaments containing such compounds, their use and process for their preparation” (2015).
